Data as given in ChEMBL document CHEMBL1139734, “Exploration of the diketoacid integrase inhibitor chemotype leading to the discovery of the anilide-ketoacids chemotype” (Bioorg Med Chem Lett, 2006).
pIC50: −log10 of the molar value.

Experiment: Inhibition of HIV integrase-mediated strand transfer activity
Set-up: species or system Human immunodeficiency virus

pIC50 | SMILES
< 3.70 | O=C(/C=C(\O)C(=O)O)Cc1ccccc1
6.15 | O=C(/C=C(\O)C(=O)O)Nc1cccc(Cl)c1
4.87 | O=C(/C=C(\O)C(=O)O)Nc1ccc(F)cc1
5.25 | O=C(/C=C(\O)C(=O)O)Nc1ccc(Cl)cc1
< 3.90 | CN(C(=O)/C=C(\O)C(=O)O)c1cccc(Cl)c1
6.80 | O=C(/C=C(\O)C(=O)O)Nc1ccc(Cl)c(Cl)c1
7.70 | O=C(O)/C(O)=C/C(=O)N1CCc2cc(Cl)c(Cl)cc21
6.70 | O=C(O)/C(O)=C/C(=O)N1CCc2ccccc21
< 4.00 | O=C(O)/C(O)=C/c1nc2ccc(Cl)cc2o1
6.64 | O=C(O)/C(O)=C/C(=O)N1CCc2cc(F)ccc21
5.62 | O=C(/C=C(\O)C(=O)O)Nc1ccc(F)c(F)c1
